Data from patent US6716881B2, “Carbanilides used as pesticides” (Bayer Aktiengesellschaft, priority 1996, dated 2004).

Columns and labels:
[1] = system: Podosphaera leucotricha; experiment: Podosphaera test (apple)/protective; format: in vivo; conditions: protective, 100 ppm in spray liquor, evaluation 10 days after inoculation
Method: Podosphaera Test (Apple)/Protective
(§1) To produce a suitable preparation of active compound, 1 part by weight of active compound is mixed with the stated amounts of solvent and emulsifier, and the concentrate is diluted with water to the desired concentration.
To test for protective activity, young plants are sprayed with the preparation of active compound until dew-moist. After the spray-coating has dried on, the plants are inoculated by dusting with conidia of the causative organism of apple mildew Podosphaera leucotricha.
(§2) The plants are then placed in a greenhouse at 23° C. and a relative atmospheric humidity of approximately 70%.
Evaluation is carried out 10 days after the inoculation. 0% means an efficacy which corresponds to that of the untreated control, while an efficacy of 100% means that no infection is observed.

[2] = system: caterpillars of diamond-back moth (Plutella maculipennis); experiment: Plutella test; format: in vivo; conditions: cabbage leaves dipped, active compound concentration 0.1 %
Method: (§3) To produce a suitable preparation of active compound, 1 part by weight of active compound is mixed with the stated amount of solvent and the stated amount of emulsifier, and the concentrate is diluted with water to the desired concentration.
Cabbage leaves (Brassica oleracea) are treated by being dipped into the preparation of active compound of the desired concentration and are populated with caterpillars of diamond-back moth (Plutella maculipennis) while the leaves are still moist.
(§4) After the desired period of time, the kill in % is determined. 100% means that all the caterpillars have been killed; 0% means that none of the caterpillars have been killed.

[3] = system: peach aphids (Myzus persicae); experiment: Myzus test; format: in vivo; conditions: infested cabbage leaves dipped, active compound concentration 0.1 %
Method: as §3
Cabbage leaves (Brassica oleracea) which are heavily infested by peach aphids (Myzus persicae) are treated by being dipped into the preparation of active compound of the desired concentration.
After the desired period of time, the kill in % is determined. 100% means that all the aphids have been killed, 0% means that none of the aphids have been killed.

[4] = system: Plasmopara viticola; experiment: Plasmopara test (grape vines)/protective; format: in vivo; conditions: protective, application rate 100 g/ha, evaluation 6 days after inoculation
Method: Plasmopara Test (Grape Vines)/Protective
(§5) To produce a suitable preparation of active compound, 1 part by weight of active compound is mixed with the stated amounts of solvent and emulsifier and the concentrate is diluted with water to the desired concentration.
To test for protective activity, young plants are sprayed with the preparation of active compound at the stated application rate. After the spray-coating has dried on, the plants are inoculated with an aqueous spore suspension of Plasmopara viticola and then remain in an incubation cabin at approximately 20° C. and 100% relative atmospheric humidity for 1 day. The plants are subsequently placed in a greenhouse at approximately 21° C. and approximately 90% relative atmospheric humidity for 5 days. The plants are then moistened and placed in an incubation cabin for 1 day.
Evaluation is carried out 6 days after the inoculation. 0% means an efficacy which corresponds to that of the control, while an efficacy of 100% means that no infection is observed.

[5] = system: Coniophora puteana; experiment: Inhibitory test with giant colonies of Basidiomycetes (Coniophora puteana); format: cell-based; conditions: after 3 or 7 days at 26° C., vs untreated control; for inhibition at 1 ppm: 1 ppm in agar, read-out: Inhibition of the growth of the hypha in % with Coniophora puteana at an active compound concentration of 1 ppm; for inhibition at 3 ppm: 3 ppm in agar, read-out: Inhibition of the growth of the hypha in % with Coniophora puteana at an active compound concentration of 3 ppm; for inhibition at 6 ppm: 6 ppm in agar, read-out: Inhibition of the growth of the hypha in % with Coniophora puteana at an active compound concentration of 6 ppm
Method: (§6) Inhibitory Test with Giant Colonies of Basidiomycetes.
(§7) To produce a suitable preparation of active compound, 0.2 parts by weight of active compound are admixed with 99.8 parts by weight of the abovementioned solvent.
(§8) An agar which has been prepared using malt extract peptone is mixed in the liquid state with the preparation of active compound at the particular desired application rate. After the agar has set, the resulting nutrient medium is incubated at 26° C. with pieces of mycelium which had been punched out of colonies of Coniophora puteana or Coriolus versicolor.
(§9) Evaluation is carried out after 3 or 7 days' storage at 26° C. by measuring the growth of the hypha and scoring the resulting inhibition in percent in comparison to the untreated control. 0% means an inhibition of growth which corresponds to that of the untreated control, while an inhibition of growth of 100% means that no growth of the hypha is observed.

[6] = system: Coriolus versicolor; experiment: Inhibitory test with giant colonies of Basidiomycetes (Coriolus versicolor); format: cell-based; conditions: Trametes versicolor, after 3 or 7 days at 26° C., vs untreated control; for inhibition at 1 ppm: 1 ppm in agar, read-out: Inhibition of the growth of the hypha in % with Coriolus versicolor at an active compound concentration of 1 ppm; for inhibition at 3 ppm: 3 ppm in agar, read-out: Inhibition of the growth of the hypha in % with Coriolus versicolor at an active compound concentration of 3 ppm; for inhibition at 6 ppm: 6 ppm in agar, read-out: Inhibition of the growth of the hypha in % with Coriolus versicolor at an active compound concentration of 6 ppm
Method: as §6, §7, §8, §9

[7] = system: Venturia inaequalis; experiment: Venturia test (apple)/protective (Example B, spray liquor concentration); format: in vivo; conditions: protective, 100 ppm in spray liquor, evaluation 12 days after inoculation
Method: (§10) Venturia Test (Apple)/Protective
as §1
To test for protective activity, young plants are sprayed with the preparation of active compound until dew-moist. After the spray-coating has dried on, the plants are inoculated with an aqueous conidia suspension of the causative organism of apple scab Venturia inaequalis and then remain in an incubation cabin at 20° C. and 100% relative atmospheric humidity for 1 day.
as §2
Evaluation is carried out 12 days after the inoculation. 0% means an efficacy which corresponds to that of the untreated control, while an efficacy of 100% means that no infection is observed.

[8] = system: Pyrenophora teres; experiment: Pyrenophora teres test (barley)/protective; format: in vivo; conditions: protective, application rate 125 g/ha, evaluation 7 days after inoculation
Method: Pyrenophora teres Test (Barley)/Protective
as §1
To test for protective activity, young plants are sprayed with the preparation of active compound at the stated application rate.
After the spray-coating has dried on, the plants are sprayed with a conidia suspension of Pyrenophora teres.
The plants remain in an incubation cabin at 20° C. and 100% relative atmospheric humidity for 48 hours.
The plants are placed in a greenhouse at a temperature of approximately 20° C. in a relative atmospheric humidity of approximately 80%.
Evaluation is carried out 7 days after the inoculation. 0% means an efficacy which corresponds to that of the untreated control, while an efficacy of 100% means that no infection is observed.

[9] = system: R-strain of Pseudocercosporella herpotrichoides; experiment: Pseudocercosporella herpotrichoides test; R-strain (wheat)/protective; format: in vivo; conditions: protective, application rate 250 g/ha, evaluation 21 days after inoculation
Method: Pseudocercosporella herpotrichoides Test; R-Strain (Wheat)/Protective
as §5
To test for protective activity, young plants are sprayed with the preparation of active compound at stated application rates.
After the spray-coating has dried on, the plants are inoculated at the base of the stem with spores of the R-strain of Pseudocercosporella herotrichoides.
The plants are placed in a greenhouse at a temperature of approximately 10° C. and a relative atmospheric humidity of approximately 80%.
Evaluation is carried out 21 days after the inoculation. 0% means an efficacy which corresponds to that of the control, while an efficacy of 100% means that no infection is observed.

[10] = system: caterpillars of the owlett moth (Spodoptera frugiperda); experiment: Spodoptera test; format: in vivo; conditions: cabbage leaves dipped, active compound concentration 0.1 %
Method: as §3
Cabbage leaves (Brassica oleracea) are treated by being dipped into the preparation of active compound of the desired concentration and are populated with caterpillars of the owlett moth (Spodoptera frugiperda) while the leaves are still moist.
as §4

[11] = system: Venturia inaequalis; experiment: Venturia test (apple)/protective (Example K, application rate); format: in vivo; conditions: protective, application rate 100 g/ha, evaluation 12 days after inoculation
Method: as §10, §1
To test for protective activity, young plants are sprayed with the preparation of active compound at the stated application rate. After the spray-coating has dried on, the plants are inoculated with an aqueous Conidia suspension of the causative organism of apple scab Venturia inaequalis and then remain in an incubation cabin at approximately 20° C. and 100% relative atmospheric humidity for 1 day.
The plants are subsequently placed in a greenhouse at approximately 21° C. and a relative atmospheric humidity of approximately 90%.
Evaluation is carried out 12 days after the inoculation. 0% means an efficacy which corresponds to that of the control, while an efficacy of 100% means that no infection is observed.

With `Cc1nn(C)cc1C(=O)Nc1ccccc1Oc1ccccc1` [drawing 519] the “Efficacy in % at an active compound concentration in the spray liquor of 100 ppm” value (shortened to “Efficacy in % … of 100 ppm”) [1] was 96%.

For `Cc1nc(C(F)(F)F)c(C(=O)Nc2ccccc2CSc2ccccc2)s1` [drawing 531], the “Degree of kill in % after 7 d” value [2] was 100%.

For `Cc1cccc(COc2ccccc2NC(=O)c2cn(C)nc2C)c1`, the “Degree of kill in % after 7 d” value [2] was 100%.

In the case of `O=C(Nc1ccccc1OCc1ccccc1)C1=C(C(F)(F)F)OCCS1`, the “Degree of kill in % after 7 d” value [2] is reported as 90%.

For `Cc1cccc(OCc2ccccc2NC(=O)c2cn(C)nc2C(F)(F)F)c1` [drawing 539], the “Degree of kill in % after 7 d” value [3] was 95%.

For `Cc1ccc(SCc2ccccc2NC(=O)c2ccccc2C(F)(F)F)cc1`, the Efficacy in % [4] was 95%.

In the case of `Cc1ccc(SCc2ccccc2NC(=O)c2cn(C)nc2C(F)F)cc1` [Example 46], the melting point is reported as 108 °C, the inhibition at 1 ppm [5] is reported as 80% and the inhibition at 3 ppm [5] is reported as 100%. The inhibition at 6 ppm [5] was 100%, the inhibition at 1 ppm [6] was 100% and the inhibition at 3 ppm [6] was 100%. It also gave an inhibition at 6 ppm [6] of 100%.

Molecule `CC1=C(C(=O)Nc2ccccc2CSc2ccccc2)SCCO1` has an Efficacy in % [4] of 90%.

`Cn1cc(C(=O)Nc2ccccc2C=Cc2ccccc2)c(C(F)(F)F)n1` [Example 16] showed a melting point of 117 °C, an inhibition at 1 ppm [5] of 80% and an inhibition at 3 ppm [5] of 100%. The inhibition at 6 ppm [5] was 100%, the inhibition at 1 ppm [6] was 100% and the inhibition at 3 ppm [6] was 100%. The inhibition at 6 ppm [6] was 100%.

With `CC1=C(C(=O)Nc2ccccc2OCc2cc(Cl)cc(Cl)c2)SCCO1` the “Degree of kill in % after 7 d” value [2] was 100%.

Molecule `Cn1cc(C(=O)Nc2ccccc2Oc2ncnc(F)c2F)c(C(F)(F)F)n1` [Example 3, 2-(4,5-difluoro-pyrimdyl-6-oxy)-1-methyl-3-trifluoro-methyl-1-pyrazole-4-carboxanilide] has a melting point of 197 °C.

With `Cc1nn(C)cc1C(=O)Nc1ccccc1Oc1ccccc1` [drawing 521] the “Efficacy in % … of 100 ppm” value [7] was 83%.

Work on `Cc1ccc(SCc2ccccc2NC(=O)c2cn(C)nc2C(F)F)cc1` [drawing 529] yielded an Efficacy in % [8] of 75%.

In the case of `O=C(Nc1ccccc1Oc1ccccc1)c1ccccc1C(F)(F)F` [drawing 518], the “Efficacy in % … of 100 ppm” value [1] is reported as 100%.

With `Cc1ccc(OCc2ccccc2NC(=O)c2cn(C)nc2C(F)F)c(C)c1` [drawing 532] the “Degree of kill in % after 7 d” value [2] was 100%.

With `Cn1cc(C(=O)Nc2ccccc2C=Cc2ccccc2)c(C(F)(F)F)n1` [drawing 523] the “Efficacy in % … of 100 ppm” value [7] was 97%.

Work on `Cc1ccc(OCc2ccccc2NC(=O)c2cn(C)nc2C(F)F)c(C)c1` [Example 50] yielded a melting point of 120 °C, an inhibition at 1 ppm [5] of 100% and an inhibition at 3 ppm [5] of 100%. It also gave an inhibition at 6 ppm [5] of 100%, an inhibition at 1 ppm [6] of 100% and an inhibition at 3 ppm [6] of 100%. It also gave an inhibition at 6 ppm [6] of 100%.

For `O=C(Nc1ccccc1Oc1ccccc1)c1ccccc1C(F)(F)F` [drawing 520], the “Efficacy in % … of 100 ppm” value [7] was 83%.

In the case of `Cc1nc(C(F)(F)F)c(C(=O)Nc2ccccc2Oc2ccccc2)s1`, the “Efficacy in % … of 100 ppm” value [7] is reported as 94%.

`C/C(=N\OCc1ccccc1NC(=O)c1cn(C)nc1C)c1cccc(C(F)(F)F)c1` showed an Efficacy in % [9] of 90%.

For `Cc1ccc(SCc2ccccc2NC(=O)c2cn(C)nc2C(F)F)cc1` [drawing 525], the “Efficacy in % … of 100 ppm” value [7] was 100%.

In the case of `Cc1ccc(OCc2ccccc2NC(=O)c2cn(C)nc2C)cc1`, the “Degree of kill in % after 7 d” value [10] is reported as 100%.

With `Cc1ccccc1OCc1ccccc1NC(=O)c1ccccc1C(F)(F)F` the “Degree of kill in % after 7 d” value [2] was 100%.

For `Cc1ccc(OCc2ccccc2NC(=O)c2cn(C)nc2C(F)F)c(C)c1` [drawing 526], the “Efficacy in % … of 100 ppm” value [7] was 95%.

In the case of `Cn1cc(C(=O)Nc2ccccc2C=Cc2ccccc2)c(C(F)F)n1` [drawing 524], the “Efficacy in % … of 100 ppm” value [7] is reported as 100%.

Work on `Cn1cc(C(=O)Nc2ccccc2C=Cc2ccccc2)c(C(F)F)n1` [drawing 528] yielded an Efficacy in % [8] of 83%.

Work on `Cn1cc(C(=O)Nc2ccccc2C=Cc2ccccc2)c(C(F)F)n1` [Example 20] yielded a melting point of 122 °C, an inhibition at 1 ppm [5] of 100% and an inhibition at 3 ppm [5] of 100%. The inhibition at 6 ppm [5] was 100%, the inhibition at 1 ppm [6] was 100% and the inhibition at 3 ppm [6] was 100%. For the same molecule, the inhibition at 6 ppm [6] was 100%.

In the case of `Cc1nn(C)cc1C(=O)Nc1ccccc1CSc1ccc(Cl)cc1` [drawing 534], the “Degree of kill in % after 7 d” value [2] is reported as 100%.

`CC1=C(C(=O)Nc2ccccc2Oc2ccccc2)SCCO1` showed an Efficacy in % [11] of 100%.
